From patent publication US20250250269A1, “HETEROCYCLIC GLP-1 AGONISTS” (Gasherbrum Bio, Inc., priority 2022, published 2025) come the findings set out here.

What is called EC50 is the concentration that produces a half-maximal response. Read a low EC50 as higher potency in that assay.

Structures are written as SMILES.

The target of this assay is T1, GLP-1 Receptor (Homo sapiens, UniProt P43220).
T1 construct: host or cells: HEK293/CRE-Luc (HEK293/GLP1R/CRE-LUC)
As to the kind of experiment: GLP-1R agonist cAMP stimulation assay (HEK293/GLP1R/CRE-LUC cells, Cisbio cAMP dynamic 2 kit). The note with it: HEK293/CRE-Luc cells stably expressing the GLP-1 Receptor, 30 min at 37° C. The format is cell-based. Summed up: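 HEK293 CRE-Luc cells stably expressing GLP-1R (1000 cells/well) treated with compounds in ½-log dilution for 30 min at 37 °C in DPBS with 0.5 mM IBMX and 0.1% BSA. cAMP quantified by HTRF (cAMP-d2/anti-cAMP cryptate, 1 h, room temperature), fluorescence read at 665 and 615 nm.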

T1 sequence (P43220 24-463, species assumed): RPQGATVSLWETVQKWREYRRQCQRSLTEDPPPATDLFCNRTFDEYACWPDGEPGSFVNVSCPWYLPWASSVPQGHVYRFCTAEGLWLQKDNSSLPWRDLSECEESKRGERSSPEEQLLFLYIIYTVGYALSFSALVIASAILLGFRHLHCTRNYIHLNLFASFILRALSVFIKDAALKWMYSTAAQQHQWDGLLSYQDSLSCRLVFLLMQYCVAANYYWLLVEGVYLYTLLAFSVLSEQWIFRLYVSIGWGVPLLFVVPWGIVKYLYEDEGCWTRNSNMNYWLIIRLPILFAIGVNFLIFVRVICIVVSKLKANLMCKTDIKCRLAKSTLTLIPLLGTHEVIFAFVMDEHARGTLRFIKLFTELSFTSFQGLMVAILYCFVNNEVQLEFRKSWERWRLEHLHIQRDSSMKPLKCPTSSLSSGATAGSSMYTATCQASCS

For `O=C1CN(Cc2nc3cc(-c4nnc(C(F)(F)F)[nH]4)ncc3n2C[C@@H]2CCO2)CCN1c1ccc(F)c(OCc2ccc(Cl)cc2F)n1` [Compound 52, 1-{6-[(4-chloro-2-fluorophenyl)methoxy]-5-fluoropyridin-2-yl}-4-[(3-{[(2S)-oxetan-2-yl]methyl}-6-[5-(trifluoromethyl)-4H-1,2,4-triazol-3-yl]-3H-imidazo[4,5-c]pyridin-2-yl)methyl]piperazin-2-one], the half-maximal effective concentration (EC50) was < 1 nM.
For `CC1(c2ccc(F)cc2F)Oc2cccc(C3CCN(Cc4nc5cc(-c6nnc(C(F)(F)F)[nH]6)cnc5n4C[C@@H]4CCO4)CC3)c2O1` (stereo partly drawn) [Compound 53, 4-[2-(2,4-difluorophenyl)-2-methyl-2H-1,3-benzodioxol-4-yl]-1-[(3-{[(2S)-oxetan-2-yl]methyl}-6-[5-(trifluoromethyl)-4H-1,2,4-triazol-3-yl]-3H-imidazo[4,5-b]pyridin-2-yl)methyl]piperidine], the EC50 is < 1 nM.
Next, `CC1(c2ccc(F)cc2F)Oc2cccc(C3CCN(Cc4nc5cc(-c6nnc(C(F)(F)F)[nH]6)ncc5n4C[C@@H]4CCO4)CC3)c2O1` (stereo partly drawn) [Compound 54, 4-[2-(2,4-difluorophenyl)-2-methyl-2H-1,3-benzodioxol-4-yl]-1-[(3-{[(2S)-oxetan-2-yl]methyl}-6-[5-(trifluoromethyl)-4H-1,2,4-triazol-3-yl]-3H-imidazo[4,5-c]pyridin-2-yl)methyl]piperidine]: < 1 nM; `Cc1ccc(C2(C)Oc3cccc(C4CCN(Cc5nc6cc(-c7nnc(C(F)(F)F)[nH]7)ncc6n5C[C@@H]5CCO5)CC4)c3O2)cn1` (stereo partly drawn) [Compound 55, 2-methyl-5-[2-methyl-4-{1-[(3-{[(2S)-oxetan-2-yl]methyl}-6-[5-(trifluoromethyl)-4H-1,2,4-triazol-3-yl]-3H-imidazo[4,5-c]pyridin-2-yl)methyl]piperidin-4-yl}-2H-1,3-benzodioxol-2-yl]pyridine]: < 1 nM; `Cc1ccc(C2(C)Oc3cccc(C4CCN(Cc5nc6cc(-c7nnc(C(F)(F)F)[nH]7)cnc6n5C[C@@H]5CCO5)CC4)c3O2)cn1` (stereo partly drawn) [Compound 56, 2-methyl-5-[2-methyl-4-{1-[(3-{[(2S)-oxetan-2-yl]methyl}-6-[5-(trifluoromethyl)-4H-1,2,4-triazol-3-yl]-3H-imidazo[4,5-b]pyridin-2-yl)methyl]piperidin-4-yl}-2H-1,3-benzodioxol-2-yl]pyridine]: < 1 nM.
Under `O[C@@H]1CN(Cc2nc3cc(-c4nnc(C(F)(F)F)[nH]4)ncc3n2C[C@@H]2CCO2)CC[C@H]1c1cccc(OCc2ccc(Cl)cc2F)n1` [Compound 57, (3,4-trans)-4-{6-[(4-chloro-2-fluorophenyl)methoxy]pyridin-2-yl}-1-[(3-{[(2S)-oxetan-2-yl]methyl}-6-[5-(trifluoromethyl)-4H-1,2,4-triazol-3-yl]-3H-imidazo[4,5-c]pyridin-2-yl)methyl]piperidin-3-ol] stands < 1 nM.
